Measured values published in patent US9176118B2, “Methods employing insect models for determining intestinal absorption of chemical compounds” (Entomopharm ApS, priority 2009, dated 2015).

Test: Decapitated locust model: hemolymph drug concentration by LCMS after administration via esophageal catheter
Settings: male, Locusta migratoria (locust), in vivo
Procedure: The insects may be obtained from local suppliers or bred in house. The grasshoppers were reared under crowded conditions at 28° C. and a 12:12 dark:light photocycle and fed fresh grass and bran. Before experiments the grasshoppers were fed ecologically cultivated wheat for two weeks. Animals used are adult males (in some experiments females) between two to four weeks after adult emergence. After decapitation, test compounds are administrated via a catheter or a probe inserted into the midgut of the animal. At various times after administration hemolymph samples are taken for quantitative determination of drug concentration in the hemolymph. The samples are snap-frozen and stored until analyses. Drug concentration is analysed by HPLC, LC/MSMS or other methods.
The head of male locusts (Locusta migratoria), which have been starving for 12 hours, was cut off and a plastic catheter was inserted under microscope into the esophagus. 20 μl of quinidine (0.1 mg/ml) was administered via the catheter by using a Hamilton syringe.
(§1) 10 and 30 minutes after administration (10 μl) hemolymph was collected with a calibrated capillary tube by puncturing the ventral membrane anterior to the thorax and immediately blown into a tube containing 40 μl aqua dest and 100 μl of acetonitrile. Each sample was centrifuged for 5 minutes (10 000g at 4° C.). 100 μl of the supernatants were transferred to new test tubes for LCMS analysis.
as §1, with “The head of male locusts (Locusta migratoria), which have been starving for 12 hours, was cut off and a plastic catheter was inserted under microscope into the esophagus. 20 μl of quinidine (1 mg/ml) was administered via the catheter by using a Hamilton syringe. 10 and” for “10 and”
The head of male locusts (Locusta migratoria), which have been starving for 12 hours, was cut off and a plastic catheter was inserted under microscope into the esophagus. 20 μl of propranolol (0.1 mg/ml) was administered via the catheter by using a Hamilton syringe.
as §1, with “analysis. […]” for “analysis.”

With `Cn1c(=O)c2c(ncn2C)n(C)c1=O` [caffeine] the concentration at 10 min (2 µg per animal) was 177 ng/mL, the concentration at 30 min (2 µg per animal) was 276 ng/mL and the concentration at 10 min (20 µg per animal) was 1150 ng/mL. For the same molecule, the concentration at 30 min (20 µg per animal) was 1660 ng/mL.
